# PubChem BioAssay (NCI)
# Values joined by “and” are separate entries in the source; they are usually repeats but may differ in a detail not shown here. Identical values can stand only once.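 The compound was tested at five concentrations on cells cultured in 96-well plates, with a 48-hour exposure period. At the GI50, growth is halved. Definition used: TGI = concentration required for complete inhibition of growth.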
# How the values were obtained:
# Experiment in all cases: growth of human tumour cells (NCI), 48 h
# [1] = system: ACHN renal
# [2] = system: CCRF-CEM leukemia
# [3] = system: EKVX NSCLC
# [4] = system: HL-60(TB) leukemia
# [5] = system: LOX IMVI melanoma
# [6] = system: MDA-MB-231 breast
# [7] = system: MDA-MB-435
# [8] = system: SF-268 CNS
# [9] = system: SF-295 CNS
# [10] = system: SK-MEL-28 melanoma
Structure (SMILES),TGI [1],TGI [2],TGI [3],TGI [4] [µM],TGI [5],TGI [6],TGI [7],TGI [8],TGI [9],TGI [10],GI50 [9]
CC(C)(C)/C(O)=C\c1nc2cc(C(F)(F)F)ccc2[nH]c1=O,> 100 µM,81.2 µM,> 100 µM,19.8,> 100 µM,> 100 µM,> 100 µM,> 100 µM,> 100 µM,> 100 µM,
CO[C@H]1O[C@@H]2CO[C@@H](c3ccccc3)O[C@H]2C[C@]12CCC/C=C\CO2,35 µM,36.5 µM,25.8 µM,54.7,22.9 µM,39.3 µM,26.5 µM,32.1 µM,> 75 µM,26.6 µM,
CC/C(Cl)=N\OC(=O)Nc1ccc(C#N)cc1,27.4 µM,4.1 µM,26.3 µM,6.2,15.9 µM,29.1 µM,29.4 µM,33 µM,33 µM,33.8 µM,
CC(C)[Si]1(C(C)C)OCC2OC(n3ccc(=O)[nH]c3=O)C(O)(CO)C2O[Si](C(C)C)(C(C)C)O1 (configuration not stated),30.8 µM,30.7 µM,27.4 µM,> 100,30.7 µM,26.7 µM,31.6 µM,27.8 µM,28.5 µM,36.7 µM,
O=[N+]([O-])C1(C2([N+](=O)[O-])CCCC2)CCCC1,,> 100 µM,> 100 µM,> 100,> 100 µM,> 100 µM,> 100 µM,> 100 µM,,> 100 µM,
O=C(O)c1ccccc1/C=N\NC1=NCCN1,> 100 µM,> 100 µM,> 100 µM,> 100,> 100 µM,> 100 µM,> 100 µM,> 100 µM,> 100 µM,,
C[N+]1(C)CN(c2ccccc2)C2(CCN(CCCC(=O)c3cccs3)CC2)C1=O,> 100 µM,> 100 µM,> 100 µM,> 100,> 100 µM,> 100 µM,> 100 µM,> 100 µM,> 100 µM,> 100 µM,
CC1OC(=O)c2ccccc2NC1=O (configuration not stated),> 100 µM,> 100 µM,> 100 µM,> 100,> 100 µM,> 100 µM,> 100 µM,> 100 µM,> 100 µM,> 100 µM,
CCCc1c2c3ccccc3nc-2nc2ccccn12,> 100 µM,> 100 µM,> 100 µM,> 100,> 100 µM,> 100 µM,> 100 µM,70.4 µM,> 100 µM,> 100 µM,
O=C(O)CCC1(c2ccccc2)NC(=O)NC1=O (configuration not stated),> 100 µM,> 100 µM,> 100 µM,> 100,> 100 µM,> 100 µM,> 100 µM,> 100 µM,> 100 µM,> 100 µM,
O/N=C\c1cc(O)c(O)c(/C=N/O)c1,80.3 µM,> 100 µM,> 100 µM,> 100,> 100 µM,> 100 µM,> 100 µM,> 100 µM,> 100 µM,> 100 µM,
Nc1ncc(Cc2nc3ccccc3s2)s1,> 100 µM,> 100 µM,> 100 µM,> 100,> 100 µM,> 100 µM,> 100 µM,> 100 µM,> 100 µM,> 100 µM,
Cc1nc2c(-c3ccccc3)[nH]c(C)c2c(=O)o1,> 100 µM,> 100 µM,> 100 µM,> 100,> 100 µM,> 100 µM,> 100 µM,> 100 µM,> 100 µM,> 100 µM,
CC(Cc1ccc(O)c(O)c1)C(C)Cc1ccc(O)c(O)c1 (configuration not stated),33.5 µM,19.3 µM,58.8 µM,10.3,38.8 µM,> 57 µM,28.3 µM,41.6 µM,43 µM,31.1 µM,
O=C1OC(CN2CCN(c3ccccc3)CC2)CN1C(=S)Nc1ccccc1 (configuration not stated),> 100 µM,> 100 µM,> 100 µM,> 100,> 100 µM,> 100 µM,> 100 µM,> 100 µM,> 100 µM,> 100 µM,
Cn1c(=O)n(CC(Br)CBr)c(=O)n(CC(Br)CBr)c1=O (configuration not stated),> 100 µM,66.9 µM,88.7 µM,58,34.9 µM,> 100 µM,> 100 µM,> 100 µM,> 100 µM,> 100 µM,
COC(=O)C1=C(C)NC(C)=C([N+](=O)[O-])C1c1cccc(NO)c1 (configuration not stated),> 44.9 µM,> 22.9 µM,> 61.5 µM,5.57,15.5 µM,17 µM,5.3 µM,> 100 µM,23.1 µM,> 69.4 µM,
C=CCn1c(=O)c(C)cn(/C(=C/C(=O)OCC)C(=O)OCC)c1=O,21.2 µM,5.42 µM,28.7 µM,5.48,21.3 µM,29.3 µM,28.2 µM,44.3 µM,> 100 µM,32.3 µM,
CC1(C)CCc2c(c(N=Nc3ccccc3)c3ccccc3c2O)O1,33.5 µM,> 100 µM,59.5 µM,> 100,54 µM,67 µM,83.5 µM,> 100 µM,57.3 µM,> 100 µM,
Cc1ccc(S(=O)(=O)N/N=C2\C=C[C@]3(CC2)C(=O)N(C)c2ccccc23)cc1,> 100 µM,> 100 µM,> 100 µM,> 100,> 100 µM,> 100 µM,> 100 µM,> 100 µM,> 100 µM,> 100 µM,
CSCCCCCCCCCCOc1ccc(C=C2C(=C(C#N)C#N)c3ccccc3C2=C(C#N)C#N)cc1,29.5 µM,12.2 µM,34.5 µM,4.34,61.7 µM,35.7 µM,32.9 µM,34.2 µM,34 µM,29.6 µM,
Cc1ccc(C2=Nc3c(N)nc(N)nc3NC(c3ccccc3)C2)cc1 (configuration not stated),28.8 µM and 32 µM,48.5 µM and 96.9 µM,27.2 µM and 28.2 µM,20.3,23 µM and 28 µM,19.7 µM and 28.9 µM,7.25 µM and 6.01 µM,29.9 µM and 31.8 µM,17.9 µM and 23.8 µM,24.8 µM and 35.3 µM,4.9 µM and 10.5 µM

Structure (SMILES),TGI [1],TGI [2],TGI [3],TGI [4] [µM],TGI [5],TGI [6],TGI [7],TGI [8],TGI [9],TGI [10],GI50 [9]
COc1ccc(NC2=NCCO2)c2ccccc12,> 10 µM,> 10 µM,> 10 µM,> 10,> 10 µM,> 10 µM,> 10 µM,> 10 µM,> 10 µM,> 10 µM,
CC1(C)CC(=O)c2c(nc3ccc4ccccc4c3c2-c2ccc(NC(=O)CCCCC(=O)Nc3ccc(-c4c5c(nc6ccc7ccccc7c46)CC(C)(C)CC5=O)cc3)cc2)C1,> 100 µM,> 100 µM,> 100 µM,> 100,> 100 µM,> 100 µM,> 100 µM,> 100 µM,> 100 µM,> 100 µM,
COC/C=C\[C@@]1(O)CCCC[C@@H]1CC(OC)OC,,> 64.3 µM,> 100 µM,> 28.4,20.9 µM,> 100 µM,> 76.1 µM,> 91.9 µM,97.3 µM,> 80.6 µM,
NNC(=O)c1n[nH]nc1SSc1n[nH]nc1C(=O)NN,> 100 µM,> 100 µM,> 100 µM,> 100,> 100 µM,> 100 µM,> 100 µM,> 100 µM,> 100 µM,> 100 µM,
CCOC(=O)c1nc2cc(C(F)(F)F)ccc2nc1Nc1ccc(Cl)c(Cl)c1,> 100 µM,> 100 µM,> 100 µM,> 100,> 100 µM,> 100 µM,> 100 µM,> 100 µM,> 100 µM,> 100 µM,
Fc1ccc(C(OCCN2CCC3CCC(C2)N3Cc2cc3ccccc3[nH]2)c2ccc(F)cc2)cc1 (configuration not stated),4.07 µM,4.69 µM,3.73 µM,3.69,3.18 µM,3.22 µM,3.55 µM,4.12 µM,3.78 µM,3.04 µM,
Nc1c(C(=O)c2ccccc2)[nH]c(NCc2ccccc2)c1C(=S)Nc1ccccc1,> 100 µM,> 100 µM,> 100 µM,> 100,> 100 µM,> 100 µM,> 100 µM,> 100 µM,> 100 µM,> 100 µM,
Clc1nc2c(-c3cccs3)ncnc2n1Cc1ccccc1,4.36 µM,> 100 µM,55.4 µM,> 70.3,> 100 µM,> 81.5 µM,> 100 µM,> 100 µM,> 100 µM,> 100 µM,
COc1nc(=O)n(C2CC(N=[N+]=[N-])C(CO)O2)cc1C (configuration not stated),> 100 µM,> 100 µM,> 100 µM,> 100,> 100 µM,> 100 µM,> 100 µM,> 100 µM,> 100 µM,> 100 µM,
CN1C[C@@H]2CCCN2P1Oc1cccc2cccnc12 (some centres not stated),> 100 µM,19.3 µM,90.6 µM,72.9,> 100 µM,> 100 µM,> 100 µM,69.7 µM,> 100 µM,> 100 µM,
Cc1[nH]c2ccccc2c1C=Nc1ccc(Oc2ccccc2)cc1,30.8 µM,28.9 µM,27.4 µM,32.3,32.8 µM,32.2 µM,31.8 µM,34.1 µM,29.1 µM,34.7 µM,
COC(=O)CCCCC/C(=C\C(=O)C(Cl)(Cl)Cl)OC,> 100 µM,> 100 µM,56.8 µM,47.6,44.9 µM,> 100 µM,64.7 µM,86.3 µM,> 100 µM,> 100 µM,
CSC(=NCCN=C(NS(=O)(=O)c1ccc(Cl)cc1)SC)NS(=O)(=O)c1ccc(Cl)cc1,> 100 µM,> 100 µM,> 100 µM,> 100,> 100 µM,> 100 µM,> 100 µM,68.7 µM,> 100 µM,> 100 µM,
CC(=O)c1cn(-c2ccc(Cl)cc2)c(=O)c2c(N)n[nH]c12,> 100 µM,> 100 µM,> 100 µM,> 100,> 100 µM,> 100 µM,> 100 µM,> 100 µM,> 100 µM,> 100 µM,
Nc1cccc(OCc2nc(N)nc(N)c2-c2ccc(Cl)cc2)c1,> 100 µM,29.2 µM,> 100 µM,77.3,> 100 µM,> 100 µM,> 100 µM,> 100 µM,> 100 µM,> 100 µM,
CN(/N=C\c1ccc2ccccc2c1)C1=NCCCCN1,> 100 µM,69.1 µM,> 100 µM,39.9,28.7 µM,64.5 µM,38.1 µM,> 100 µM,33.5 µM,31.1 µM,
N#Cc1c(NC(=S)NCc2ccccc2)sc2c1CCN(N1CCc3c(sc(NC(=S)NCc4ccccc4)c3C#N)C1)C2,> 100 µM,> 100 µM,> 100 µM,> 100,> 100 µM,> 100 µM,> 100 µM,> 100 µM,> 100 µM,> 100 µM,
CCCCCCCSCC(O)COC(c1ccccc1)(c1ccccc1)c1ccccc1 (configuration not stated),76.3 µM,> 100 µM,> 100 µM,63.9,> 100 µM,> 100 µM,> 100 µM,66.8 µM,> 100 µM,> 100 µM,
O=C(NC(Nc1ccc(F)c(Cl)c1)(C(F)(F)F)C(F)(F)F)C(C(F)(F)F)C(F)(F)F,36.9 µM,73.9 µM,> 100 µM,44.6,29.9 µM,78.9 µM,> 100 µM,> 100 µM,> 100 µM,> 100 µM,
O=C1c2cc(CCl)sc2C(=O)c2ccsc21,1.25 µM,1.22 µM,2.74 µM,0.497,0.149 µM,0.588 µM,0.0339 µM,0.676 µM,0.245 µM,0.149 µM,
NC(=O)N(O)c1cccc(Br)c1,> 100 µM,> 100 µM,> 100 µM,> 100,> 100 µM,> 100 µM,> 100 µM,> 100 µM,> 100 µM,> 100 µM,
